Like-named read-outs stand apart in the source and are kept apart here.
Key:
[1] = target: T1, c-Myc353-437 (monomeric c-Myc bHLH-ZIP) (Homo sapiens, UniProt P01106); test: Fluorescence polarization titration, c-Myc bHLH-ZIP binding; details: Table 1; FP of nitrobenzofurazan moiety, c-Myc353-437; read-out: KD (c-Myc affinity, bivalent)
T1 construct: recombinant monomeric c Myc bHLH-ZIP (amino acids 353-437); 6xHis with TEV site (N, cleaved yes); made in house; host or cells: E. coli BL21DE3(pLysS)
Source text: A c-Myc353-437 full-length bHLH-ZIP domain and its truncated version c-Myc390-439 were produced from the c-Myc/pET SKB3 construct, kindly supplied by Dr. S. K. Nair (University of Illinois, Urbana-Champaign), by insertion into the pET151D vector, encoding an N-terminal hexahistidine (6× His), separated by a TEV protease digestion site, with the TOPO® ligation system, and over-expressed in E. coli BL21DE3(pLysS). The 6× His tagged human Max isoform p21, with low homodimerization affinity^70, cloned into the pQE10 vector (Qiagen, Inc.), was over-expressed in E. coli M15(pRep4). Bacterial cultures were grown at 37° C. in LB medium to OD600≈0.8, then induced with 0.5 mM IPTG for 5 hours. Proteins were purified by Ni-agarose chromatography with a pH gradient elution. The 6× His tag of c-MYC353-437 and c-Myc390-439 was cleaved using TEV protease (the TEV protease was expressed in a pET24 vector [courtesy of S. K. Nair] and purified by Ni-agarose chromatography under native conditions). All the proteins were further purified by HPLC and lyophilized. Protein concentrations were determined by measurement of OD280. The synthetic peptide c-Myc363-381 is described in Follis, A. V., Hammoudeh, D. I., Wang, H., Prochownik, E & Metallo, S. J. Structural rationale for the coupled binding and unfolding of the c-Myc oncoprotein by small molecules. Chemistry & Biology 15, 1149-1155 (2008).
Samples were analyzed in a Photon Technology International QuantaMaster fluorimeter (Birmingham, N.J.) equipped with polymer sheet polarizers. Titration experiments were performed upon serial dilution of 1:1 equimolar solution of inhibitor and either c-Myc353-437, c-Myc390-439 or c-Myc363-381 in a 1×PBS buffer (137 mM NaCl, 2.7 mM KCl, 4.3 mM Na2HPO4, 1.4 mM KH2PO4, pH=7.4), 5% DMSO, over concentrations ranging between 200 μM and 1.5 nM. Excitation and emission wavelengths were independently determined for each inhibitor. Reported data represent the average of at least three independent experiments. Data were fit to a quadratic equation derived from the thermodynamic expression of binding equilibrium:
[formula] where [C]0 represents the total concentration of inhibitor and of c-Myc peptide. The value of KD was determined from the experimental polarization data by fitting to Eq. 2 using KaleidaGraph (Synergy Software, Reading, Pa.) where pol0 is the polarization in the absence of binding and Δpol is the total change in polarization (Park, S. H. & Raines, R. T. Fluorescence polarization assay to quantify protein-protein interactions. Methods in Molecular Biology 261, 161-6 (2004)).
[formula] Due to the very tight binding of some of the tested compounds, it was impossible to perform a full binding titration with an acceptable fluorescence intensity, therefore the polo parameter was experimentally determined from samples of each compound in the absence of c-Myc353-437 at a concentration of 25 μM. Binding specificity experiments were performed by monitoring the FP of 10 μM inhibitors solutions in the above-described buffer in the presence of equimolar p21 Max. […] Circular Dichroism.
Also in this case the c-Myc binding affinity was little affected by the introduction of the linker chain (Table 1, FIG. 11).
We then measured the affinity of the synthesized bivalent inhibitors, by monitoring the FP of the compounds nitrobenzofurazan moiety. […] The estimated free energy of binding of the bivalent compounds was roughly proportional to the sum of those of their monovalent components. In the thermodynamic analysis of multivalent binding a ΔG^s term is used to relate the free energy of binding of a multivalent compound to the sum of those of its monovalent components. This term implies the diverse energy contributions resulting from the linking of independent binding components. The ΔG^s term generally constitutes a negative contribution to the binding affinity of distinct binding components connected by a flexible linker to a given target.

[2] = test system: Daudi Burkitt lymphoma cells; test: Burkitt's lymphoma cell growth inhibition (MTT assay); assay type: cell-based; details: Homo sapiens
Procedure: (§1) These assays were performed as previously described using HL60 promyelocytic leukemia cells and Daudi Burkitt lymphoma cells, each of which expresses high levels of endogenous c-Myc (Wang, H. et al. Mol. Cancer Ther. 6, 2399-408 (2007)). As controls for non-specific effects of bivalent compounds, we utilized a c-Myc nulllizygous strain of rat fibroblasts (Mateyak, M. K., et al. Cell Growth & Differentiation 8, 1039-48 (1997)) expressing the c-Myc target genes MT-MC1 and HMGAIb, each of which restores a normal growth rate as well as the TGR1 fibroblast line from which the nullizygous line was derived (Wang, H. et al. Mol. Cancer Ther. 6, 2399-408 (2007); Mateyak, M. K., et al. Cell Growth & Differentiation 8, 1039-48 (1997); and Rothermund, K. et al. Cancer Research 65, 2097-107 (2005)). […] Cell quantification was performed on triplicate wells over the ensuing 4-5 days without changing the medium by measuring the absorbance at 490 nm using the MTT assay (Mosmann, T. Journal of Immunological Methods 65, 55-63 (1983)). IC50 values were estimated from linear regression of the inhibition data at the third day of each experiment.
(§2) We evaluated the efficacy of the linked compounds 11, 12, 13, 16, 17, 18 in inhibiting the c-Myc-Max interaction by measuring the binding of a target DNA sequence (E-Box) by the protein heterodimers in an electrophoretic mobility shift assay (EMSA). […] A fluorinated substitute of 14, 24, the choice of which was based upon the results of structure activity relationship studies described in Wang, H. et al. (Mol. Cancer Ther. 6, 2399-408 (2007)), was employed at this purpose (Muller, K., et al. Science 317, 1881-6 (2007) and Kirk, K. L. Current Topics in Medicinal Chemistry 6, 1447-56 (2006)).

[3] = test system: HL60 promyelocytic leukemia cells; test: HL60 cell growth inhibition (MTT assay); assay type: cell-based; details: Homo sapiens, HL-60
Procedure: as §1, §2

[4] = Table 3, MTT, third day, read-out: Growth inhibition BL
[5] = Table 3, MTT, third day, read-out: Growth inhibition HL60

T1 sequence (P01106 368-452): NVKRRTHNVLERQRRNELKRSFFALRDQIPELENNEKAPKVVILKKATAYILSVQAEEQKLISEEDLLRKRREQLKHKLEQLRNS

Row | Compound | Kd [1] [nM] | IC50 [2, 4] [nM] | IC50 [3, 5] [nM] | IC50 ([2]; BL cells, read-out: IC50) [nM] | IC50 ([3]; HL60 cells, read-out: IC50) [nM]
1 | O=C1NC(=S)S/C1=C\c1ccc(C(=O)NCCCCCNC(=O)c2cccc(Nc3ccc([N+](=O)[O-])c4nonc34)c2)cc1 [compound 12, N-[5-({3-[(7-nitro-2,1,3-benzoxadiazol-4-yl)amino]phenyl}formamido)pentyl]-4-{[(5Z)-4-oxo-2-sulfanylidene-1,3-thiazolidin-5-ylidene]methyl}benzamide] | 400 ± 100 | 20000 to 35000 | > 30000 |  | 
2 | O=C1NC(=S)SC1=Cc1ccc(C(=O)NCCCCCNC(=O)c2ccc(Nc3ccc([N+](=O)[O-])c4nonc34)cc2)cc1 [compound 13] | 4.7 ± 0.8 | 5000 to 10000 | 6000 |  | 
3 | CCc1ccc(/C=C2\SC(=O)N(CCCCCCNC(=O)c3ccccc3Nc3ccc([N+](=O)[O-])c4nonc34)C2=O)cc1 [compound 16, N-{6-[(5Z)-5-[(4-ethylphenyl)methylidene]-2,4-dioxo-1,3-thiazolidin-3-yl]hexyl}-2-[(7-nitro-2,1,3-benzoxadiazol-4-yl)amino]benzamide amine] | 2.2 ± 0.2 | 700 to 900 | 500 to 700 | 500 to 1000 | 500 to 1000
4 | CCc1ccc(C=C2SC(=O)N(CCCCCCNC(=O)c3cccc(Nc4ccc([N+](=O)[O-])c5nonc45)c3)C2=O)cc1 [compound 17] | 110 ± 20 | > 10000 | > 30000 |  | 

Reference: patent publication US8637556B2, “Linked Myc-max small molecule inhibitors” (University of Pittsburgh—Of the Commonwealth System of …, priority 2009, dated 2014)
